The results in this text go back to patent US6545000B1, “[1,2,4]triazolo[1,5-c]pyrimidine derivatives” (Kyowa Hakko Kogyo Co., Ltd., priority 1998, dated 2003).

Data set [1] concerns the target T1, Rat A2A receptor (Rattus norvegicus, UniProt P30543).
T1 construct: from tissue; host or cells: rat corpus striatum membrane preparation
As to the kind of experiment: Adenosine A2A receptor binding test (3H-CGS 21680 binding). Conditions: 10^−6 mol/L test compound, rat corpus striatum. On the procedure: The final precipitate was suspended in 50 mmol/L Tris-HCl buffer (containing 10 mmol/L magnesium chloride and 0.02 unit/mg tissue of adenosine deaminase (manufactured by Sigma Co.)) by adding the buffer to the final precipitate so as to give a tissue concentration of 5 mg (wet weight)/mL.
Inhibition ratio (%)={1−(amount of the binding in the presence of the test compound−amount of the non-specific binding)/(amount of the total binding−amount of the non-specific binding)}×100

Data set [2] concerns reserpine-induced catalepsy. As to the kind of experiment: Activity on reserpine-induced catalepsy. The format is in vivo, mouse. Conditions: oral; for Remission ratio (%): percentage reduction of total score vs control group; for Total score: total catalepsy score of 10 mice (maximum 50 points), reserpine 5 mg/kg s.c., 1 hour after administration. As to the method:
This test was carried out using 10 animals per group of male ddY mice of 5 week age (22 to 24 g in body weight, Japan SLC). […] Reserpine (5 mg/kg: apoplon, Daiichi Pharmaceutical Co., Ltd.; diluted with distilled water) was subcutaneously administered, and catalepsy-inducing activity was observed from 18 hours after the administration. […] Each test compound was suspended in distilled water for injection containing 0.5% MC (manufactured by Otsuka Pharmaceutical Co., Ltd.) The suspension containing each of the test compounds or a solution containing no test compound (distilled water for injection containing 0.5% MC (manufactured by Otsuka Pharmaceutical Co., Ltd.); control) was orally administered (0.1 mL per 10 g mouse body weight) and, one hour after the administration of test compound, only forelimbs or only hindlimbs of each animal were laid on a stand having a size of 4.5 cm in height and 1.0 cm in width, to measure catalepsy symptoms.
The effect was judged by total catalepsy scores of 10 animals in one group (the maximum is 50 points). When the total score was 40 points or less, the activity of the test compound was judged positive. The number of animals showing remission of catalepsy was expressed by the number of cases in which the catalepsy score was 4 points or less in 10 cases. The catalepsy remission ratio was expressed as the percentage reduction of the total score in the test compound-administered group to the total score in the control group.

Data set [3] relates to CGS 21680-induced catalepsy. As to the kind of experiment: Activity on CGS 21680-induced catalepsy. The format is in vivo, mouse. The conditions noted are these: 10 mg/kg oral; for inhibition in vivo at 10 mg/kg: Mus musculus, 1 h, percentage reduction of total score vs control group, read-out: Remission ratio (%); for Total score: total catalepsy score of 10 mice (maximum 50 points), 1 hour after administration. On the procedure:
This test was carried out using 10 animals per group of male ddY mice of 5 week age (22 to 25 g in body weight, Japan SLC). […] One hour after the administration of the test compound, only forelimbs or only hindlimbs of each animal were laid on a vertically arranged stand made of acryl, having a size of 4.5 cm in height and 1.0 cm in width, to measure catalepsy symptoms. All of the test compounds were administered orally in a dose of 10 mg/kg.
The effect was judged by total catalepsy scores of 10 animals in one group (the maximum score is 50 points). When total score was 40 points or less, the activity of the compounds was judged positive. The number of animals showing remission of catalepsy was expressed by the number of cases in which the catalepsy score was 4 points or less in 10 cases. The catalepsy remission ratio was expressed as the percentage reduction of the total score in the test compound-administered group to the total score in the control group.

T1 sequence (P30543 whole entry): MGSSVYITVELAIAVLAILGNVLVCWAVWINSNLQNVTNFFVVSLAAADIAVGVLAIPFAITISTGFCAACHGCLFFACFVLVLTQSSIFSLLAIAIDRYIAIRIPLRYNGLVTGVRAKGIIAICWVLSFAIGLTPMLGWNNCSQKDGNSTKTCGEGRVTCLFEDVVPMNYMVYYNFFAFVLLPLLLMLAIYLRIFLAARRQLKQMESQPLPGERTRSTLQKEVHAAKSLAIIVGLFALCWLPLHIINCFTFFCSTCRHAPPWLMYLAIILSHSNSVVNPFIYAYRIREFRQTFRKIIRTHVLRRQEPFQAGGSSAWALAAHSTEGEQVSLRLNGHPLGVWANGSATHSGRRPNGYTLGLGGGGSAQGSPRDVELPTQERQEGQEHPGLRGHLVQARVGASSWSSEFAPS

As to `CCC(C)(O)CN1CCN(c2cc3nc(-c4ccco4)nn3c(N)n2)CC1` (stereo not shown) [Compound 2, 5-Amino-2-(2-furyl)-7-(4-(2-hydroxy-2-methylbutyl)piperazinyl)[1,2,4]triazolo[1,5-c]pyrimidine], the melting point is 212 °C. Also, the “Rat A2A receptor inhibition ratio (%)” value in data set [1] came out at 84%.
The like results for `CC(O)(CN1CCN(c2cc3nc(-c4ccco4)nn3c(N)n2)CC1)c1ccccc1` (stereo not shown) [Compound 3, 5-Amino-2-(2-furyl)-7-(4-(2-hydroxy-2-phenylpropyl)piperazinyl)[1,2,4]triazolo[1,5-c]pyrimidine] were, in that order, 267 to 268 °C and 93%.
Take `Nc1nc(N2CCN(CC3(O)CC3)CC2)cc2nc(-c3ccco3)nn12` [Compound 5, 5-Amino-2-(2-furyl)-7-(4-(1-hydroxycyclopropylmethyl)piperazinyl)[1,2,4]triazolo[1,5-c]pyrimidine]: in data set [2], the “Remission ratio (%)” value was determined as 76% and the Total score was 12. In data set [3], the inhibition in vivo at 10 mg/kg was 90% and the Total score worked out at 5.
For `COC(C)(C)CN1CCN(c2cc3nc(-c4ccco4)nn3c(N)n2)CC1` [Compound 6, 5-Amino-2-(2-furyl)-7-(4-(2-methoxy-2-methylpropyl)piperazinyl)[1,2,4]triazolo[1,5-c]pyrimidine] the same measures were 78%, 11, 84% and 8.
Turning to `CC(C)(O)CCN1CCN(c2cc3nc(-c4ccco4)nn3c(N)n2)CC1` [Compound 7, 5-Amino-2-(2-furyl)-7-(4-(3-hydroxy-3-methylbutyl)piperazinyl)[1,2,4]triazolo[1,5-c]pyrimidine], the results for the Total score in data set [2] and in data set [3] were 23 and 8, respectively.
`CCC(C)(O)CCN1CCN(c2cc3nc(-c4ccco4)nn3c(N)n2)CC1` (stereo not shown) [Compound 8, 5-Amino-2-(2-furyl)-7-(4-(3-hydroxy-3-methylpentyl)piperazinyl)[1,2,4]triazolo[1,5-c]pyrimidine] displayed a melting point of 196 to 197 °C. Also, in data set [1], the “Rat A2A receptor inhibition ratio (%)” value is 84%.
The like results for `CC(O)(CCN1CCN(c2cc3nc(-c4ccco4)nn3c(N)n2)CC1)c1ccccc1` (stereo not shown) [Compound 9, 5-Amino-2-(2-furyl)-7-(4-(3-hydroxy-3-phenylbutyl)piperazinyl)[1,2,4]triazolo[1,5-c]pyrimidine] were, in that order, 123 to 124 °C and 89%.
Turning to `CCC(O)(CC)CCN1CCN(c2cc3nc(-c4ccco4)nn3c(N)n2)CC1` [Compound 10, 5-Amino-2-(2-furyl)-7-(4-(3-ethyl-3-hydroxypentyl)piperazinyl)[1,2,4]triazolo[1,5-c]pyrimidine], in data set [1], the “Rat A2A receptor inhibition ratio (%)” value is reported as 87%. In addition, in data set [3], the inhibition in vivo at 10 mg/kg is 78% and the Total score was determined as 11.
`COC(C)(C)CCN1CCN(c2cc3nc(-c4ccco4)nn3c(N)n2)CC1` [Compound 11, 5-Amino-2-(2-furyl)-7-(4-(3-methoxy-3-methylbutyl)piperazinyl)[1,2,4]triazolo[1,5-c]pyrimidine]: the melting point is 194 to 195 °C. Moreover, the “Rat A2A receptor inhibition ratio (%)” value in data set [1] is 88%.
In the case of `CC(C)(O)CCCN1CCN(c2cc3nc(-c4ccco4)nn3c(N)n2)CC1` [Compound 13, 5-Amino-2-(2-furyl)-7-(4-(4-hydroxy-4-methylpentyl)piperazinyl)[1,2,4]triazolo[1,5-c]pyrimidine], in data set [3], the inhibition in vivo at 10 mg/kg came out at 80% and the Total score is listed as 10.
On to `CC(C)(O)CCCCN1CCN(c2cc3nc(-c4ccco4)nn3c(N)n2)CC1` [Compound 14, 5-Amino-2-(2-furyl)-7-(4-(5-hydroxy-5-methylhexyl)piperazinyl)[1,2,4]triazolo[1,5-c]pyrimidine], for which, in data set [2], the “Remission ratio (%)” value is on record as 76% and the Total score is recorded as 12. For the same compound, in data set [3], the inhibition in vivo at 10 mg/kg is 82% and the Total score is on record as 9.
Take `Nc1nc(N2CCN(Cc3cn4ccccc4n3)CC2)cc2nc(-c3ccco3)nn12` [Compound 15, 5-Amino-2-(2-furyl)-7-(4-(imidazo[1,2-a]pyridin-2-ylmethyl)piperazinyl)[1,2,4]triazolo[1,5-c]pyrimidine]: the melting point was in the range of 220 to 221 °C. For the same compound, in data set [1], the “Rat A2A receptor inhibition ratio (%)” value was found to be 92%.
`Nc1nc(N2CCN(Cc3cn4ccncc4n3)CC2)cc2nc(-c3ccco3)nn12` [Compound 16, 5-Amino-2-(2-furyl)-7-(4-(imidazo[1,2-a]pyrazin-2-ylmethyl)piperazinyl)[1,2,4]triazolo[1,5-c]pyrimidine]: the melting point was in the range of 242 to 244 °C. For the same compound, in data set [1], the “Rat A2A receptor inhibition ratio (%)” value worked out at 88%.
The like results for `Nc1nc(N2CCN(Cc3cn4cccnc4n3)CC2)cc2nc(-c3ccco3)nn12` [Compound 17, 5-Amino-2-(2-furyl)-7-(4-(imidazo[1,2-a]pyrimidin-2-ylmethyl)piperazinyl)[1,2,4]triazolo[1,5-c]pyrimidine] were, in that order, 244 to 246 °C and 90%.
As to `Nc1nc(N2CCN(Cc3nc4ccccc4[nH]3)CC2)cc2nc(-c3ccco3)nn12` [Compound 18, 5-Amino-7-(4-(benzimidazol-2-ylmethyl)piperazinyl)-2-(2-furyl)[1,2,4]triazolo[1,5-c]pyrimidine], the melting point was 284 to 286 °C. Further, the “Rat A2A receptor inhibition ratio (%)” value in data set [1] is given as 96%.
Turning to `Nc1nc(N2CCN(Cc3nc4ccccc4s3)CC2)cc2nc(-c3ccco3)nn12` [Compound 19, 5-Amino-7-(4-(benzothiazol-2-ylmethyl)piperazinyl)-2-(2-furyl)[1,2,4]triazolo[1,5-c]pyrimidine], in data set [2], the “Remission ratio (%)” value came out at 62% and the Total score was determined as 19. Also, in data set [1], the “Rat A2A receptor inhibition ratio (%)” value is listed as 95%. Also, in data set [3], the inhibition in vivo at 10 mg/kg was found to be 90% and the Total score was 5.
Turning to `Nc1nc(N2CCN(Cc3ccc4nsnc4c3)CC2)cc2nc(-c3ccco3)nn12` [Compound 20, 5-Amino-7-(4-(benzo-2,1,3-thiadiazol-5-ylmethyl)piperazinyl)-2-(2-furyl)[1,2,4]triazolo[1,5-c]pyrimidine], in data set [3], the inhibition in vivo at 10 mg/kg was determined as 90% and the Total score is 5.
`Cc1cc(CN2CCN(c3cc4nc(-c5ccco5)nn4c(N)n3)CC2C)no1` (stereo not shown) [Compound 22, 5-Amino-2-(2-furyl)-7-(3-methyl-4-(5-methylisoxazol-3-ylmethyl)piperazinyl)[1,2,4]triazolo[1,5-c]pyrimidine]: in data set [2], the “Remission ratio (%)” value was determined as 74% and the Total score is reported as 13. The “Rat A2A receptor inhibition ratio (%)” value in data set [1] is 84%. Also, in data set [3], the inhibition in vivo at 10 mg/kg stood at 98% and the Total score worked out at 1.
As to `Cc1cc(C(C)N2CCN(c3cc4nc(-c5ccco5)nn4c(N)n3)CC2)no1` (stereo not shown) [Compound 23, 5-Amino-2-(2-furyl)-7-(4-(1-(5-methylisoxazol-3-yl)ethyl)piperazinyl)[1,2,4]triazolo[1,5-c]pyrimidine], in data set [1], the “Rat A2A receptor inhibition ratio (%)” value is 75%.
For `Cc1nocc1CN1CCN(c2cc3nc(-c4ccco4)nn3c(N)n2)CC1` [Compound 24, 5-Amino-2-(2-furyl)-7-(4-(3-methylisoxazol-4-ylmethyl)piperazinyl)[1,2,4]triazolo[1,5-c]pyrimidine], in data set [2], the “Remission ratio (%)” value is listed as 72% and the Total score came to 14. In addition, the “Rat A2A receptor inhibition ratio (%)” value in data set [1] worked out at 96%. In data set [3], the inhibition in vivo at 10 mg/kg came out at 96% and the Total score turned out to be 2.
For `Nc1nc(N2CCN(Cc3ccc4c(c3)NC(=O)CO4)CC2)cc2nc(-c3ccco3)nn12` [Compound 27, 5-Amino-2-(2-furyl)-7-(4-(3-oxo-3,4-dihydro-2H-benzo[1,4]oxazin-6-ylmethyl)piperazinyl)[1,2,4]triazolo[1,5-c]pyrimidine], the “Rat A2A receptor inhibition ratio (%)” value in data set [1] worked out at 96%. Also, in data set [3], the inhibition in vivo at 10 mg/kg amounted to 92% and the Total score was 4.
